Measurements from patent US10011607B2, “Ethynyl derivatives” (Hoffmann-La Roche Inc., priority 2015, dated 2018).

Experiments:
mice treated with MPTP = settings: cited from earlier work
[1] = tested on: 6-OHDA rodent model of PD; settings: cited from earlier work
human mGlu4 receptor = human mGlu4 receptor (Homo sapiens (Human), UniProt Q14833); experiment: Ca2+ mobilization in vitro assay on recombinant human mGlu4 expressed in HEK293 cells (PAM); type: cell-based; settings: for Emax: HEK293, maximal response in % of maximal stimulatory effect of saturating L-AP4, read-out: Eff. (%); for EC50: HEK293 cells, human mGlu4, in presence of EC20 of L-AP4, read-out: EC50 (nM) mGlu4PAM
Outline: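 HEK293 cells stably expressing human mGlu4 at low level, Fluo-4AM loaded; compound (11 half-log dilutions) pre-incubated 10–30 min at 37 °C, then L-AP4 added at EC20 (determined daily). Peak fluorescence minus basal, normalized to saturating L-AP4; EC50, Hill slope and % Emax from four-parameter fit.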

rats (model of anxiety) = settings: cited from earlier work
mice (model of anxiety) [2] = settings: reported by Addex 2010; cited from earlier work
mice (model of anxiety) [3] = settings: reported by Addex 2010; cited from earlier work; remark: listed apart in the source

Chain of human mGlu4 receptor (Q14833 33-912): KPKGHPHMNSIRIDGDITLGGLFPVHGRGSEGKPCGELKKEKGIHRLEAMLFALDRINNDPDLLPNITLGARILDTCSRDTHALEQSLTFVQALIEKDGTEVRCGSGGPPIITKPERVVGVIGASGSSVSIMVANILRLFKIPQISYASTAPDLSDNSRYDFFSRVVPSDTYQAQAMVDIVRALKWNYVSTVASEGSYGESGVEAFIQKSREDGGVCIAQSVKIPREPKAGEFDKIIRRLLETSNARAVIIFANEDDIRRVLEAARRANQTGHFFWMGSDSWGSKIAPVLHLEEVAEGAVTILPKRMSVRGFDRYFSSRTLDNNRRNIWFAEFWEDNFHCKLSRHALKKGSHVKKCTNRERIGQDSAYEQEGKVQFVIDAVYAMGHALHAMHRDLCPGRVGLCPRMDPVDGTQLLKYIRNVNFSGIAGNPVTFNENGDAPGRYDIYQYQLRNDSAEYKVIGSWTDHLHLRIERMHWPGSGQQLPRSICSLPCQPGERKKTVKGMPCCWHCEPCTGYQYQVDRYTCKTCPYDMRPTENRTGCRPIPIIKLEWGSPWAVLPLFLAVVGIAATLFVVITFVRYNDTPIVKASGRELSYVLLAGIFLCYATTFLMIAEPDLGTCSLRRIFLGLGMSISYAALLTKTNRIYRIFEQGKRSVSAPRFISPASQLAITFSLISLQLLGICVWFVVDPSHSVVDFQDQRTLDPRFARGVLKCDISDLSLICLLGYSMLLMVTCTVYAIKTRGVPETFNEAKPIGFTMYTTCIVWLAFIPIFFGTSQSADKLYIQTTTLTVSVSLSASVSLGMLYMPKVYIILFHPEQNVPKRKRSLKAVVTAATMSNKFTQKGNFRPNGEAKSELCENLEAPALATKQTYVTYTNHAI

SMILES | Emax (human mGlu4 receptor) | EC50 (human mGlu4 receptor) | other results
O=C(Nc1ccccc1)C12CC1/C(=N\O)c1ccccc1O2 (single isomer, unassigned; (-)) [(−)-PHCCC] | – | – | nigrostriatal degeneration (mice treated with MPTP): reduced nigrostriatal degeneration
N[C@@H](CCP(=O)(O)O)C(=O)O [L-AP4, (2S)-2-amino-4-phosphonobutanoic acid] | – | – | neuroprotection [1]: neuroprotective effects
Cc1cncnc1N1CCN2C(=O)N(c3c(F)cc(C#Cc4ccccc4)cc3F)C(=O)C[C@@]2(C)C1=O [Example 36, (9aS)-7-[2,6-difluoro-4-(2-phenylethynyl)phenyl]-9a-methyl-2-(5-methylpyrimidin-4-yl)-4,9-dihydro-3H-pyrazino[1,2-c]pyrimidine-1,6,8-trione] | 132% | 86 nM | –
CC12CC(=O)N(c3c(F)cc(C#Cc4ccccc4)cc3F)C(=O)N1CCN(c1nccs1)C2=O (racemic) [Example 52, (9aRS)-7-[2,6-difluoro-4-(2-phenylethynyl)phenyl]-9a-methyl-2-thiazol-2-yl-4,9-dihydro-3H-pyrazino[1,2-c]pyrimidine-1,6,8-trione] | 97% | 113 nM | –
CC12CC(=O)N(c3c(F)cc(C#Cc4ccccc4)cc3F)C(=O)N1CCN(c1nc(C#N)cs1)C2=O (racemic) [Example 55, 2-[(9aRS)-7-[2,6-difluoro-4-(2-phenylethynyl)phenyl]-9a-methyl-1,6,8-trioxo-4,9-dihydro-3H-pyrazino[1,2-c]pyrimidin-2-yl]thiazole-4-carbonitrile] | 94% | 77 nM | –
CC12CC(=O)N(c3c(F)cc(C#Cc4ccccc4)cc3F)C(=O)N1CCN(c1cnccn1)C2=O (racemic) [Example 32, (9aRS)-7-[2,6-difluoro-4-(2-phenylethynyl)phenyl]-9a-methyl-2-pyrazin-2-yl-4,9-dihydro-3H-pyrazino[1,2-c]pyrimidine-1,6,8-trione] | 112% | 88 nM | –
Cn1ccc(N2CCN3C(=O)N(c4c(F)cc(C#Cc5ccccc5)cc4F)C(=O)CC3(C)C2=O)n1 (racemic) [Example 62, (9aRS)-7-[2,6-difluoro-4-(2-phenylethynyl)phenyl]-9a-methyl-2-(1-methylpyrazol-3-yl)-4,9-dihydro-3H-pyrazino[1,2-c]pyrimidine-1,6,8-trione] | 112% | 149 nM | –
COC[C@@]12CC(=O)N(c3c(F)cc(C#Cc4ccccc4)cc3F)C(=O)N1CCN(c1cnn(C)c1)C2=O [Example 105, (9aR)-7-[2,6-difluoro-4-(2-phenylethynyl)phenyl]-9a-(methoxymethyl)-2-(1-methylpyrazol-4-yl)-4,9-dihydro-3H-pyrazino[1,2-c]pyrimidine-1,6,8-trione] | 144% | 61 nM | –
O=C1C2CC(=O)N(c3c(F)cc(C#Cc4ccccc4)cc3F)C(=O)N2CCN1c1cccnc1 (racemic) [Example 1, (9aRS)-7-[2,6-difluoro-4-(2-phenylethynyl)phenyl]-2-(3-pyridyl)-3,4,9,9a-tetrahydropyrazino[1,2-c]pyrimidine-1,6,8-trione] | 105% | 224 nM | –
C[C@@]12CC(=O)N(c3c(F)cc(C#Cc4ccccc4)cc3F)C(=O)N1CCN(c1ccnc(Cl)c1)C2=O [Example 19, (9aS)-2-(2-chloro-4-pyridyl)-7-[2,6-difluoro-4-(2-phenylethynyl)phenyl]-9a-methyl-4,9-dihydro-3H-pyrazino[1,2-c]pyrimidine-1,6,8-trione] | 100% | 69 nM | –
C[C@@]12CC(=O)N(c3c(F)cc(C#Cc4ccccc4)cc3F)C(=O)N1CCN(c1ccncc1)C2=O [Example 9, (9aS)-7-[2,6-difluoro-4-(2-phenylethynyl)phenyl]-9a-methyl-2-(4-pyridyl)-4,9-dihydro-3H-pyrazino[1,2-c]pyrimidine-1,6,8-trione] | 85% | 29 nM | –
Cc1ccnc(Nc2nc(-c3cn[nH]c3)c(C)s2)n1 [ADX88178] | – | – | profile in rat EPM test (rats (model of anxiety); rat, after oral dosing): anxiolytic-like profile; activity in EPM (rats (model of anxiety); rats, reported by Addex 2010): active; activity in marble burying test (mice (model of anxiety) [2]): active; activity in EPM (mice (model of anxiety) [3]): active
Cc1nccn1CCN1CCN2C(=O)N(c3c(F)cc(C#Cc4ccccc4)cc3F)C(=O)C[C@@]2(C)C1=O [Example 99, (9aS)-7-[2,6-difluoro-4-(2-phenylethynyl)phenyl]-9a-methyl-2-[2-(2-methylimidazol-1-yl)ethyl]-4,9-dihydro-3H-pyrazino[1,2-c]pyrimidine-1,6,8-trione] | 146% | 282 nM | –
Cn1cc(N2CCN3C(=O)N(c4c(F)cc(C#Cc5ccccc5)cc4Cl)C(=O)C[C@@]3(C)C2=O)cn1 [Example 78, (9aS)-7-[2-chloro-6-fluoro-4-(2-phenylethynyl)phenyl]-9a-methyl-2-(1-methylpyrazol-4-yl)-4,9-dihydro-3H-pyrazino[1,2-c]pyrimidine-1,6,8-trione] | 117% | 75 nM | –
Cc1cncc(N2CCN3C(=O)N(c4c(F)cc(C#Cc5ccccc5)cc4F)C(=O)C[C@@]3(C)C2=O)c1 [Example 15, (9aS)-7-[2,6-difluoro-4-(2-phenylethynyl)phenyl]-9a-methyl-2-(5-methyl-3-pyridyl)-4,9-dihydro-3H-pyrazino[1,2-c]pyrimidine-1,6,8-trione] | 90% | 152 nM | –
CCOc1ncc(N2CCN3C(=O)N(c4c(F)cc(C#Cc5ccccc5)cc4F)C(=O)C[C@@]3(C)C2=O)cn1 [Example 39, (9aS or 9aR)-7-[2,6-difluoro-4-(2-phenylethynyl)phenyl]-2-(2-ethoxypyrimidin-5-yl)-9a-methyl-4,9-dihydro-3H-pyrazino[1,2-c]pyrimidine-1,6,8-trione] | 103% | 96 nM | –
C[C@@]12CC(=O)N(c3c(F)cc(C#Cc4ccccc4)cc3F)C(=O)N1CCN(c1cccnn1)C2=O [Example 47, (9aS)-7-[2,6-difluoro-4-(2-phenylethynyl)phenyl]-9a-methyl-2-pyridazin-3-yl-4,9-dihydro-3H-pyrazino[1,2-c]pyrimidine-1,6,8-trione] | 98% | 55 nM | –
C[C@@]12CC(=O)N(c3c(F)cc(C#Cc4ccccc4)cc3F)C(=O)N1CCN(Cc1ccc(F)cc1)C2=O [Example 91, (9aS)-7-[2,6-difluoro-4-(2-phenylethynyl)phenyl]-2-[(4-fluorophenyl)methyl]-9a-methyl-4,9-dihydro-3H-pyrazino[1,2-c]pyrimidine-1,6,8-trione] | 101% | 147 nM | –
COc1ccc(N2CCN3C(=O)N(c4c(F)cc(C#Cc5ccccc5)cc4F)C(=O)CC3(C)C2=O)cn1 (racemic) [Example 22, (9aRS)-7-[2,6-difluoro-4-(2-phenylethynyl)phenyl]-2-(6-methoxy-3-pyridyl)-9a-methyl-4,9-dihydro-3H-pyrazino[1,2-c]pyrimidine-1,6,8-trione] | 106% | 105 nM | –
